Where no end group is shown, it is not given here.
Tests used:
[1] = test system: dermal and epidermal hyaluronic acid levels; details: ex vivo human skin model; cited from earlier work
[2] = test system: dermal fibroblasts; assay: HA production and size assessment by PAGE of fibroblast supernatant; assay type: cell-based, human; details: 1× and 10× (100 μg/ml and 1000 μg/ml), 72 hr, 4 experiments
Method: Dermal fibroblasts were cultured in growth medium until near confluence in 6-well plates. When they reached confluence, the growth medium was replaced with serum-free medium for 24 hours. After 72 hr, 100 μl of media was collected from each treatment condition. The media was concentrated in a SpeedVac concentrator to a final volume of ˜10 μl. All 10 μl from each condition, were loaded onto an acrylamide gel (NuPAGE 4-12% Bis-Tris Protein Gel, Invitrogen, Waltham, MA). Sodium Hyaluronate, Research Grade, (HA2M) from Lifecore Biomedical (Chaska, MN) was reconstituted as recommended by the manufacturer and served as a MW reference, representing high MW HA. The gel was run at 200V for 3 hours to separate MW sizes from proteins and ECM components isolated from the supernatants along with the HA2M reference as a comparator. Gel buffer was exchanged with fresh room temperature buffer every 20 minutes to avoid overheating. The gel was stained using Stains-All (Millipore Sigma, Burlington, MA) and destained according to the manufacturer's protocol. […]
Human dermal fibroblasts were treated with Octapeptide (1× and 10×; corresponding to 100 μg/ml and 1000 μg/ml respectively) or left untreated. […] The experiment was conducted 4 times and the density of the bands from each supernatant were quantified (arbitrary units (AU)) using ImageJ. […]

[3] = test system: Hyaluronidase 2 (HYAL2); assay: RNA-Seq gene expression of HYAL2 in keratinocytes; assay type: cell-based, Human; details: 24 hr, 100 μg/ml
Method: (§1) Cell Lines. Human adult dermal fibroblast and keratinocyte cell lines were treated with 11 different compound treatments (plus DMSO control as treatment #12Primary cells were plated in cell specific media at 5K or 10K cells per cm^2. Cells were plated in 48 well plates (Greiner) in triplicate, one cell line per plate. Media volume was 500 ul per well. Outer two columns of wells were not used. All rows were used. Cells were cultured for 2 days in 37° C. 5% CO2 incubator. After 48 hours all the cell cultures were uniform and appeared healthy, no appreciable number of floating dead cells or evidence of vacuolization of cells that might indicate apoptotic or dying cells.
(§2) Compounds. Stocks of compounds 1 through 8 on the list below were prepared in PBS. […] This stock was 100× of final concentration. A 20 mg/ml stock of compound 10 (CBD) was prepared in DMSO. No undissolved particulates were observed but the stock solution was slightly cloudy, not completely clear. […]
(§3) RNA Lysate preparation. […] All samples were shipped frozen on dry ice for RNA extraction, library construction and sequencing to 25M paired end 100 bp reads per sample.
(§4) RNA-Seq. All the RNA samples were shipped frozen on dry ice for RNA extraction, library construction and sequencing to 25M paired end 100 bp reads per sample. Differentially expressed genes were identified and pathway enrichment was assessed using the Reactome Pathway.

[4] = test system: tropoelastin (TE); assay: Ex vivo human skin tissue, tropoelastin immunofluorescent staining; details: once daily for 7 days, 20 μg/ml of each peptide
Method: (§5) Referring to FIG. 24, human skin tissue was defatted and cut into a diameter of approximately 7 mm and placed in a transwell insert with cell culture media (DMEM/F12 containing […] CaCl2), 2% fetal bovine serum, 50 μM adenine, 0.02 nM tri-iodothyronine, 1% ITS-X (insulin, transferrin, selenium mix), 1% glutagro (a glutamine equivalent), 1% pen/strep, and 1% gentamycin). The medium was changed daily. The human skin tissue samples were equilibrated for 3 days, then treated with the compounds noted in Table 6 once daily for 7 days. After 7 days of treatment, the skin samples were fixed in formalin and embedded in paraffin following industry standard procedures. The resulting blocks were prepared and sectioned for immunofluorescent staining.
(§6) Antibodies directed to tropoelastin (TE) (available from Elastin, Owensville, MO) and antibodies against microfibrillar-associated protein 4 (MFAP4) (available from ThermoFisher Waltham, MA) were used to detect the production of new elastin in the treated cells. The appropriate fluorescent secondary antibodies were used for detection by fluorescence microscopy. Images were obtained and analyzed using ImageJ software.
(§7) Data was obtained from a minimum of three donor skin samples and replicates or triplicates were performed for each compound treated.

[5] = test system: Hyaluronic Acid Synthase 2 (HAS2); assay: RNA-Seq gene expression of HAS2 in dermal fibroblasts; assay type: cell-based, Human; details: 24 hr, Octapeptide 100 μg/ml
Method: as §1, §2, §3, §4

[6] = test system: microfibrillar-associated protein 4 (MFAP4); assay: Ex vivo human skin tissue, MFAP4 immunofluorescent staining; details: once daily for 7 days, 20 μg/ml of each peptide
Method: as §5, §6, §7

[7] = test system: Early Growth Response 3 (EGR3); assay: RNA-Seq gene expression of EGR3 in keratinocytes; assay type: cell-based, Human; details: 24 hr, Hexapeptide 11 100 μg/ml
Method: as §1, §2, §3, §4

[8] = test system: Hyaluronic Acid Synthase 2 (HAS2); assay: RNA-Seq gene expression of HAS2 in keratinocytes; assay type: cell-based, Human; details: 24 hr, Hexapeptide 11 100 μg/ml
Method: as §1, §2, §3, §4

In the case of CCCCCCCC(=O)CCc1ccc(O)c(OC)c1 [Hydroxymethoxyphenyl decanone], the “stimulation of dermal hyaluronic acid levels versus placebo” value [1] is given as 259% and the “stimulation of epidermal hyaluronic acid levels versus placebo” value [1] is given as 198%.

With “GPHGVREA [octapeptide-45, proprietary peptide designed by R&D at Alastin; octapeptide included in HA Immerse Serum]” the “production of high MW HA (band density, AU)” value [2] was “dose-responsive increase in the production of high MW HA”, the “HYAL2 gene expression, fold-change relative to the non-treated cells” value [3] was “modest downregulation” and the “TE expression vs untreated skin” value [4] was “increases”. For the same compound, the “HAS2 gene expression, fold-change relative to the non-treated cells” value [5] was “excellent stimulation” and the “MFAP4 expression vs untreated skin” value [6] was “increases”.

With Hexapeptide-11 the “HYAL2 gene expression, fold-change relative to the non-treated cells” value [3] was “potent downregulation”, the “upregulation of EGR3 gene expression relative to the non-treated cells” value [7] was “about seven” and the “HAS2 gene expression, fold-change relative to the non-treated cells” value [8] was “excellent upregulation”.

Source: patent US20250025525A1, “OCTAPEPTIDE FOR TOPICAL APPLICATION” (Alastin Skincare, Inc., priority 2022, published 2025)
